Legend:
[1] = tested on: THP-1 cells; experiment: Cell count in the THP-1 screening assay; type: cell-based, human; details: 10 µM compound, IFN-γ stimulation, normalized to control
Procedure: (§1) A library of small molecule compounds comprising an E2-RING domain or a RING-RING domain was screen for TRIM8 inhibition in a cell-based assay. 20,000 THP-1 cells (a human myeloid cell line which imitates human monocyte cell inflammatory behavior and responds to IFN-γ stimulation by expressing […] CXCL9, CXCL10 and CXCL11) were incubated with […] of each compound (dissolved in DMSO) for 4 hours, then stimulated with 200 U (units) of human IFN-γ. The effect of the stimulation as measured by changes in accumulation levels of the cytokines CXCL9, CXCL10 and CXCL11 in extracellular fluid was determined by flow cytometer after 12 hours and compared to control (IFN-γ stimulation with no compound).

[2] = target: T1, TRIM8 (Homo sapiens, UniProt Q9BZR9); experiment: Cell-based screen for TRIM8 inhibition: CXCL9, CXCL10 and CXCL11 accumulation in IFN-γ-stimulated THP-1 cells; details: for Normalized Average of IP-10/CXCL10 / Normalized Average of MIG/CXCL9 / Normalized Average of I-TAC/CXCL11 / Effect on inflammatory response (CXCL9, CXCL10, CXCL11 after IFN-γ): THP-1 cells; for Normalized Average of IP-10/CXCL10 / Normalized Average of MIG/CXCL9 / Normalized Average of I-TAC/CXCL11: 10 µM compound 4 hours, then 200 U human IFN-γ, 12 hours, flow cytometer; for Normalized Average of IP-10/CXCL10 / Normalized Average of MIG/CXCL9: degree of change from control (<1 inhibition, >1 enhancement), triplicate; for Normalized Average of I-TAC/CXCL11: degree of change from control, high background in read-out; for Effect on inflammatory response (CXCL9, CXCL10, CXCL11 after IFN-γ) / TRIM8 inhibitor or enhancer activity found on testing: summary in words; for TRIM8 inhibitor or enhancer activity found on testing: Example 4
T1 construct: 20,000 THP-1 cells; endogenous in cells; host or cells: THP-1
T1 sequence (Q9BZR9 1-551): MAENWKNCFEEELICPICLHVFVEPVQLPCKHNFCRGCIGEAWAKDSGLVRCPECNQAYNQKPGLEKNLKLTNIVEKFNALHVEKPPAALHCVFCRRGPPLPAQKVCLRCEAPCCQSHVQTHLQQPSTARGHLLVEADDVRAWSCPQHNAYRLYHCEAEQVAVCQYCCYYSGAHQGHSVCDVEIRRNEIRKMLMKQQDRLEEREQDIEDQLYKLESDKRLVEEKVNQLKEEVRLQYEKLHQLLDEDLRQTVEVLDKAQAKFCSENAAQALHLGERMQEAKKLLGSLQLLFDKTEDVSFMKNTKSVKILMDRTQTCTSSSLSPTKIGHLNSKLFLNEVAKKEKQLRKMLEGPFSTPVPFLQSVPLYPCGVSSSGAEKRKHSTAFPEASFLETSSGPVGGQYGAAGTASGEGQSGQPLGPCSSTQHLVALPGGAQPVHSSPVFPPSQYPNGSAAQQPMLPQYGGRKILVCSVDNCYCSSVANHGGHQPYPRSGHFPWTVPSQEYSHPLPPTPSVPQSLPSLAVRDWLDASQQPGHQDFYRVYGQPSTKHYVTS
Procedure: as §1
Each compound is identified by its ChemDiv catalog number.
Values in Table 1 are reported as degree of change from the control state. Values less than 1 indicate inhibition of cytokine response, and values greater than 1 indicate enhancement of cytokine response. Smaller values indicate a higher degree of inhibition. Values closer to zero indicate profound inhibition of cytokine response, and thus significant suppression of inflammatory responses conferred via inhibition of TRIM8 by the tested compounds. CXCL11 values are higher due to a high background in their read-out (relatively high CXCL11 values indicate […]). Standard errors reflect the degree of variation seen in the triplicate tests for each compound.

SMILES: COc1ccc(N2CCN(C(=O)c3cc4ccc5cccnc5c4[nH]3)CC2)cc1 [Compound 81, 1-(4-methoxyphenyl)-4-{1H-pyrrolo[3,2-h]quinoline-2-carbonyl}piperazine]
- Average Normalized Cell Count [1]: 1.070
- Normalized Average of IP-10/CXCL10 [2]: 0.334
- Normalized Average of MIG/CXCL9 [2]: 0.138
- Normalized Average of I-TAC/CXCL11 [2]: 0.617
- Effect on inflammatory response (CXCL9, CXCL10, CXCL11 after IFN-γ) [2]: significant inhibition of inflammatory response
- TRIM8 inhibitor or enhancer activity found on testing [2]: strong inhibitor of TRIM8

SMILES: O=C(NCCCc1ccccc1)c1n[nH]c2c1CN(C(=O)c1cc(F)ccc1F)CC2 [Compound 120, 5-(2,5-difluorobenzoyl)-N-(3-phenylpropyl)-1H,4H,5H,6H,7H-pyrazolo[4,3-c]pyridine-3-carboxamide]
- Average Normalized Cell Count [1]: 0.960
- Normalized Average of IP-10/CXCL10 [2]: 0.468
- Normalized Average of MIG/CXCL9 [2]: 0.188
- Normalized Average of I-TAC/CXCL11 [2]: 0.426
- Effect on inflammatory response (CXCL9, CXCL10, CXCL11 after IFN-γ) [2]: significant inhibition of inflammatory response
- TRIM8 inhibitor or enhancer activity found on testing [2]: TRIM8 inhibitor

SMILES: COc1ccc(-c2n[nH]c3c2C(c2ccccc2)C2=C(CC(C)(C)CC2=O)N3)cc1 (stereo not drawn) [Compound 76, 3-(4-methoxyphenyl)-7,7-dimethyl-4-phenyl-1H,4H,5H,6H,7H,8H,9H-pyrazolo[3,4-b]quinolin-5-one]
- Average Normalized Cell Count [1]: 1.196
- Normalized Average of IP-10/CXCL10 [2]: 0.352
- Normalized Average of MIG/CXCL9 [2]: 0.085
- Normalized Average of I-TAC/CXCL11 [2]: <LLOD
- Effect on inflammatory response (CXCL9, CXCL10, CXCL11 after IFN-γ) [2]: significant inhibition of inflammatory response
- TRIM8 inhibitor or enhancer activity found on testing [2]: powerful TRIM8 inhibitor

SMILES: CCc1cccc2c(C(CC(=O)N3CCN(c4ccc([N+](=O)[O-])cc4)CC3)c3cccc4c3OCO4)c[nH]c12 (stereo not drawn) [Compound 130, 3-(2H-1,3-benzodioxol-4-yl)-3-(7-ethyl-1H-indol-3-yl)-1-[4-(4-nitrophenyl)piperazin-1-yl]propan-1-one]
- Average Normalized Cell Count [1]: 1.135
- Normalized Average of IP-10/CXCL10 [2]: 0.794
- Normalized Average of MIG/CXCL9 [2]: 7.574
- Normalized Average of I-TAC/CXCL11 [2]: 0.806
- Effect on inflammatory response (CXCL9, CXCL10, CXCL11 after IFN-γ) [2]: significant enhancement of inflammatory response
- TRIM8 inhibitor or enhancer activity found on testing [2]: potent TRIM8 enhancer

SMILES: COc1ccc(CN2C(=O)NC(=O)/C(=C\c3cccc4ccccc34)C2=O)cc1 [Compound 17, (5E)-1-[(4-methoxyphenyl)methyl]-5-[(naphthalen-1-yl)methylidene]-1,3-diazinane-2,4,6-trione]
- Average Normalized Cell Count [1]: 1.435
- Normalized Average of IP-10/CXCL10 [2]: 3.640
- Normalized Average of MIG/CXCL9 [2]: 2.545
- Normalized Average of I-TAC/CXCL11 [2]: 4.410
- Effect on inflammatory response (CXCL9, CXCL10, CXCL11 after IFN-γ) [2]: significant enhancement of inflammatory response
- TRIM8 inhibitor or enhancer activity found on testing [2]: potent TRIM8 enhancer

SMILES: COc1ccc(Sc2ccc(=O)n(-c3ccc(C(=O)NCCCc4ccccc4)cc3)n2)cc1 [Compound 88, 4-{3-[(4-methoxyphenyl)sulfanyl]-6-oxo-1,6-dihydropyridazin-1-yl}-N-(3-phenylpropyl)benzamide]
- Average Normalized Cell Count [1]: 0.837
- Normalized Average of IP-10/CXCL10 [2]: 0.127
- Normalized Average of MIG/CXCL9 [2]: 0.019
- Normalized Average of I-TAC/CXCL11 [2]: 0.744
- Effect on inflammatory response (CXCL9, CXCL10, CXCL11 after IFN-γ) [2]: significant inhibition of inflammatory response
- TRIM8 inhibitor or enhancer activity found on testing [2]: highly potent TRIM8 inhibitor
